Test results taken from patent US20080299076A1, “Compunds and compositions that cause non-apoptotic cell death and uses thereof” (priority 2006, published 2008).
In brackets after ≈: the same amount, converted by molar mass.

What was measured:
[1] = target: T1, murine VDAC3 (Mus musculus, UniProt Q60931); assay: NADH oxidation assay in mitochondria from yeast expressing VDAC3; assay type: biochemical; details: mitochondria from yeast expressing VDAC3 in place of yeast VDAC
T1 construct: expressed in transfected cells; host or cells: yeast (S. cerevisiae) with murine VDAC3 in place of yeast VDAC; isolated mitochondria
T1 sequence (Q60931 1-283): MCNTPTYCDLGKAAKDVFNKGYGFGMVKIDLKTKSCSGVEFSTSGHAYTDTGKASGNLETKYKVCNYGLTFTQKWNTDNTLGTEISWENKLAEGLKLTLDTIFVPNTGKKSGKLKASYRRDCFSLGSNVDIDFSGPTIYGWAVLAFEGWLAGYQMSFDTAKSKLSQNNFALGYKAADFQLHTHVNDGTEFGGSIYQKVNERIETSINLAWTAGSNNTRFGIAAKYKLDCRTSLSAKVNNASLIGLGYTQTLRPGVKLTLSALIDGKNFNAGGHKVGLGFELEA
Experimental: In certain embodiments, mitochondria can be purified from yeast that had been engineered to express murine or human VDAC3 in place of yeast VDAC.
Mitochondria were isolated from yeast expressing murine VDAC3 in place of yeast VDAC. The rate of NADH oxidation by an inner membrane NADH dehydrogenase was determined by measuring the change in NADH absorbance over time. Mitochondria with a disrupted outer membrane show an increased rate of NADH oxidation (red, shocked) compared to untreated mitochondria (green).
NADH oxidation in the mitochondria was measured by resuspending mitochondria isolated from yeast in R-buffer (0.65 M sucrose, 10 mM HEPES (pH 7.5), 10 mM KH2PO4, 5 mM KCl, 5 mM, MgCl2) to a final concentration of 100 μg/ml. Mitochondrial concentration was measured by dissolving mitochondria in 0.6% SDS and reading absorbance at 280 nm. The mitochondrial suspension was then incubated with 25 μM NADH, and the absorbance at 340 nm monitored over a 15 minute period. The assay was repeated in the presence of erastin. To assess mitochondrial intactness, a parallel assay was run in which mitochondria were hypotonically shocked prior to addition of NADH. The mitochondrial pellet was resuspended in dH2O and incubated on ice for 3 minutes to disrupt the outer mitochondrial membrane. 2× R-buffer was then added to restore normal osmotic conditions.

[2] = tested on: BJ-TERT/LT/ST cells; assay: Alamar Blue viability assay; assay type: cell-based; details: Homo sapiens; BJ-TERT/LT/ST (lacking HRAS^V12)
Experimental: (§1) Alamar Blue metabolism: 10% Alamar Blue was added to assay plates, which were then incubated for an additional 16 hours. Red fluorescence, resulting from reduction of Alamar Blue, was detected on a Victor3 platereader (ex: 530, em: 590).
(§2) Table 2. Activity of RAS-selective lethal compound erastin in tumor cell lines. IC50 values (ng/mL) are shown using the Alamar Blue viability assay. BJ engineered tumor cells express TERT, LT, ST, and oncogenic RAS. Isogenic RAS^V12 lacking cells are identical but lack HRAS^V12. BJ-DRD cells are derived from BJ cells and contain TERT, oncogenic RAS, a truncated from of p53 (p53DD) that disrupts the tetramerization of endogenous p53, a CDK4(R24C) mutant resistant to inhibition by p16INK4A and p151NK4B (the major negative regulators of CDK4) and cyclin D1. These latter protein substitute for LT. HCT-116, A549, Calu-1, and MIA PaCa-2 are tumor cells derived from cancers (colon, lung, lung and pancreatic, respectively) known to have activating mutations in RAS.

[3] = tested on: Calu-1 cells; assay: Alamar Blue viability assay; assay type: cell-based; details: Homo sapiens; Calu-1 (+KRAS)
Experimental: as §1, §2

[4] = tested on: MIA PaCa-2 cells; assay: Alamar Blue viability assay; assay type: cell-based; details: Homo sapiens; MIA PaCa-2 (+KRAS)
Experimental: as §1, §2

[5] = tested on: HCT-116 cells; assay: Alamar Blue viability assay; assay type: cell-based; details: Homo sapiens; HCT-116 (+KRAS)
Experimental: as §1, §2

[6] = tested on: A549 cells; assay: Alamar Blue viability assay; assay type: cell-based; details: Homo sapiens; A549 (+KRAS)
Experimental: as §1, §2

[7] = Stability in mouse plasma; assay type: in vitro ADME; details: after five hours
Experimental: The stability of erastin in mouse and human liver microsomes and in mouse and human plasma was assessed. In both human and mouse liver microsomes, after 1 hr, ˜30% of erastin was converted to its primary metabolite (the O-de-ethylated product). In both human and mouse plasma, only ˜10% of erastin was lost after five hours. Thus, erastin has sufficient metabolic and plasma stability to be tested in vivo in mice.

[8] = tested on: BJ-TERT/LT/ST/RAS^V12 cells; assay: Mitochondrial membrane potential (JC-1 stain); assay type: cell-based, human; details: after 13 hours of treatment
Experimental: In certain embodiments, there is loss of mitochondrial membrane potential in >70% of BJ-TERT/LT/ST/RAS^V12 cells after 13 hours of erastin A1 treatment (JC-1 stain), and morphological changes in mitochondria examined by EM, consistent with the notion that erastin induces mitochondrial dysfunction.

[9] = Toxicity after injection in mice; assay type: in vivo
Experimental: In certain embodiments, erastin was formulated at 150 mg/kg in 10% DMSO, 20% Tween 80, 70% saline and 0.5 mL of this formulation was injected via IV twice per day for four days in 3 nude mice.

SMILES: CCOc1ccccc1-n1c(C(C)N2CCN(C(=O)COc3ccc(Cl)cc3)CC2)nc2ccccc2c1=O (centres unmarked) [erastin, 2-(1-{4-[2-(4-Chloro-phenoxy)-acetyl]-piperazin-1-yl}-ethyl)-3-(2-ethoxy-phenyl)-3H-quinazolin-4-one]
- Rate of NADH oxidation / permeability of outer mitochondrial membrane to NADH [1]: increases the permeability
- Rate of NADH oxidation / permeability of outer mitochondrial membrane to NADH ([1]; listed as Erastin): increased the rate of NADH oxidation
- IC50 [2]: > 20 µg/mL
- IC50 [3]: 1 µg/mL (≈ 1.83 µM)
- IC50 [4]: 5 µg/mL (≈ 9.14 µM)
- IC50 [5]: > 20 µg/mL
- IC50 [6]: > 20 µg/mL
- compound lost [7]: ~10%
- cells with loss of mitochondrial membrane potential [8]: > 70%
- Gross toxicity (body weight and behavior) ([9]; 150 mg/kg in 10% DMSO, 20% Tween 80, 70% saline, IV twice per day for four days, nude mice): No gross toxicity
- Overt toxicity ([9]; single dose IP in 100% DMSO up to 450 mg/kg): no overt toxicity
